Converted amounts (≈) assume the structure as drawn. Read-outs that look alike come from different tables or passages of the source.
How the values were obtained:
[1] = tested on: mixed spore suspension: Aureobasidium pullulans, Aspergillus amstelodami, Ceratocystis pilifera, Cladosporium sp., Penicillium sp., Sclerophomas entoxylina …; assay: Control of molds and sapstain fungi in mini-board test; set-up: key to Surface score of treated mini-boards, 3 week incubation, 1500 ppm / Surface score of treated mini-boards, 3 week incubation, 2500 ppm: 0: Free of fungal growth; 1: Traces of fungal growth; 2: Little fungal growth; 3: Moderate fungal growth; 4: Vigorous to maximum growth (all surfaces covered with fungal growth)
Text: Representative compounds of this invention to be tested, were suspended in an aqueous solution containing 7.5% GENAPOL X 080™ (Hoechst-Celanese Corporation), and 20% propylene glycol monomethyl ether, to prepare the test solutions. […]
Deep frozen boards (300×50×10 mm) of freshly felled sapwood of Pinus sylvestrus (mini-boards) were thawed at room temperature. One half of each mini-board was immersed in a test solution for 20 seconds. The mini-boards were then sprayed with mixed spore suspension containing the following fungi:
Sclerophomas entoxylina, and
and stored in incubation boxes at 25° C. and at 100% relative humidity, for three weeks. For each compound tested, each concentration of test solution was applied to five different mini-boards.
The efficacy of the test compounds was determined by comparing the fungal growth on both the treated and untreated parts of the mini-boards.
The degree of infection was scored according to the following scale:
1=Traces of fungal growth
4=Vigorous to maximum growth (all surfaces covered with fungal growth)

[2] = tested on: blue-stain fungi and molds; assay: Activity against blue-stain fungi and molds in a stick test (threshold concentrations); conditions: beech sticks, 22° C., 90% relative humidity; for Threshold concentration (ppm), A. niger, score 0 / Threshold concentration (ppm), Aureobasidium, score 0 / Threshold concentration (ppm), Sclerophoma, score 0 / Threshold concentration (ppm), Trichoderma, score 0: minimum concentration to obtain score 0; for Threshold concentration (ppm), A. niger, score 1-2 / Threshold concentration (ppm), Aureobasidium, score 1-2 / Threshold concentration (ppm), Sclerophoma, score 1-2 / Threshold concentration (ppm), Trichoderma, score 1-2: minimum concentration to obtain score 1-2
Experimental: Representative compounds of this invention were dissolved in 50% ethanol. Each compound was then diluted serially using 50% ethanol. […] After three (3) hours, the solutions containing the test compounds were poured off and the treated sticks were allowed to dry in a sterile laminar air flow. Each treated stick was then placed in a Petri dish which had been previously seeded with inoculum. Two drops of a test fungal or spore suspension were pipetted onto the upper surface of each treated stick. The Petri dishes containing the treated sticks were incubated at 22° C. and 90% relative humidity. The treated sticks were evaluated after there was sufficient growth of fungus on control sticks (i.e., untreated sticks) incubated in the same manner. The following score system was used: 0: Stick free of fungal/mold growth 1: Traces of fungal growth on the stick 2: Slight growth (5 to 25% of the surface covered with fungal growth) 3: Moderate growth (25 to 50% covered with fungal growth) 4. Vigorous to maximum fungal growth (more than 50% growth) […]

[3] = tested on: molds and blue-stain fungi; assay: In vitro activity against molds and blue-stain fungi, poison plate assay (MIC); assay type: cell-based; conditions: malt extract agar, complete inhibition
Experimental: The effect of the representative compounds on the growth of certain molds and blue-strain fungi were determined using a poison plate assay according to the following procedure: The solutions of the representative compounds prepared above were further diluted with sterile water to desired concentrations and poured into Petri dishes. Malt extract agar medium was then added aseptically to the Petri dishes and to Petri dishes containing no compound (controls). The Petri dishes were then shaken to provide a uniform distribution of the agar medium. Each Petri dish containing compound and each control Petri dish, was then inoculated with a fungus and incubated for a period of time sufficient to permit complete growth of the fungus in the respective control Petri dish. The Petri dishes containing compound were then examined to determine the amount of inhibition of fungi for each concentration of compound tested.

## Cc1ccc(C2=NOCC[S+]2[O-])s1 (stereo not shown) [Compound 48]
[1]
  Surface score of treated mini-boards, 3 week incubation, 1500 ppm: 0
  Surface score of treated mini-boards, 6 week incubation, 1500 ppm: 1.4
  Surface score of treated mini-boards, 3 week incubation, 2500 ppm: 0
  Surface score of treated mini-boards, 6 week incubation, 2500 ppm: 0.8

## Cc1ccc(C2=NOCCS2(=O)=O)s1 [Compound 49]
[1]
  Surface score of treated mini-boards, 3 week incubation, 1500 ppm: 0
  Surface score of treated mini-boards, 6 week incubation, 1500 ppm: 1.8
  Surface score of treated mini-boards, 3 week incubation, 2500 ppm: 0
  Surface score of treated mini-boards, 6 week incubation, 2500 ppm: 1.2

## [O-][S+]1CCON=C1c1ccc(Cl)s1 (stereo not shown) [Compound 60, 3-(5-Chloro-2-thienyl)-5.6-dihydro-1.4.2-oxathiazine-4-oxide]
[2]
  Threshold concentration (ppm), A. niger, score 0: 500 ppm
  Threshold concentration (ppm), A. niger, score 1-2: <250 ppm
  Threshold concentration (ppm), Aureobasidium, score 0: 1000 ppm
  Threshold concentration (ppm), Aureobasidium, score 1-2: 100-250 ppm
  Threshold concentration (ppm), Sclerophoma, score 0: 100 ppm
  Threshold concentration (ppm), Sclerophoma, score 1-2: <50 ppm
  Threshold concentration (ppm), Trichoderma, score 0: 2500 ppm
  Threshold concentration (ppm), Trichoderma, score 1-2: 500-1000 ppm
[3]; A. amstelodami
  MIC (ppm) against A. amstelodami: 5 ppm
[3]; A. niger
  MIC (ppm) against A. niger: 5 ppm
[3]; A. pullulans
  MIC (ppm) against A. pullulans: 25 ppm
[3]; A. versicolor
  MIC (ppm) against A. versicolor: 2.5 ppm
[3]; C. cladosporioides
  MIC (ppm) against C. cladosporioides: 25 ppm
[3]; C. pilifera
  MIC (ppm) against C. pilifera: 5 ppm
[3]; F. solani
  MIC (ppm) against F. solani: 10 ppm
[3]; G. candidum
  MIC (ppm) against G. candidum: 25 ppm
[3]; P. purpurogenum
  MIC (ppm) against P. purpurogenum: 25 ppm
[3]; P. variotii
  MIC (ppm) against P. variotii: 10 ppm
[3]; P. violacea
  MIC (ppm) against P. violacea: 10 ppm
[3]; S. atra
  MIC (ppm) against S. atra: 5 ppm
[3]; S. entoxylina
  MIC (ppm) against S. entoxylina: 5 ppm
[3]; T. viride
  MIC (ppm) against T. viride: 25 ppm
[3]; U. atrum
  MIC (ppm) against U. atrum: 10 ppm

## O=S1(=O)CCON=C1c1ccsc1 [Compound 78]
[1]
  Surface score of treated mini-boards, 3 week incubation, 1500 ppm: 0.2
  Surface score of treated mini-boards, 6 week incubation, 1500 ppm: 1.2
  Surface score of treated mini-boards, 3 week incubation, 2500 ppm: 0.2
  Surface score of treated mini-boards, 6 week incubation, 2500 ppm: 1.8

## [O-][S+]1CCON=C1c1ccsc1 (stereo not shown) [Compound 79]
[1]
  Surface score of treated mini-boards, 3 week incubation, 1500 ppm: 1.0
  Surface score of treated mini-boards, 6 week incubation, 1500 ppm: 3.0
  Surface score of treated mini-boards, 3 week incubation, 2500 ppm: 0
  Surface score of treated mini-boards, 6 week incubation, 2500 ppm: 1.8

## [O-][S+]1CCON=C1c1nc2ccccc2s1 (stereo not shown) [Compound 85, 5,6-dihydro-3-(2-benzothiazolyl)-1,4,2-oxathiazine-4-oxide]
[2]
  Threshold concentration (ppm), A. niger, score 0: 1000 ppm
  Threshold concentration (ppm), A. niger, score 1-2: <250 ppm
  Threshold concentration (ppm), Aureobasidium, score 0: 1000 ppm
  Threshold concentration (ppm), Aureobasidium, score 1-2: 250-500 ppm
  Threshold concentration (ppm), Sclerophoma, score 0: 100 ppm
  Threshold concentration (ppm), Sclerophoma, score 1-2: <50 ppm
  Threshold concentration (ppm), Trichoderma, score 0: 2500 ppm
  Threshold concentration (ppm), Trichoderma, score 1-2: 1000-2500 ppm
[3]; A. amstelodami, read-out: MIC (ppm) against A. amstelodami
  MIC: 5 µg/mL (≈ 19.8 µM)
[3]; Aspergillus niger, A. niger, read-out: MIC (ppm) against A. niger
  MIC: 5 µg/mL (≈ 19.8 µM)
[3]; Aspergillus versicolor, A. versicolor, read-out: MIC (ppm) against A. versicolor
  MIC: 2.5 µg/mL (≈ 9.91 µM)
[3]; Aureobasidium pullulans, A. pullulans, read-out: MIC (ppm) against A. pullulans
  MIC: 25 µg/mL (≈ 99.1 µM)
[3]; C. pilifera, read-out: MIC (ppm) against C. pilifera
  MIC: 2.5 µg/mL (≈ 9.91 µM)
[3]; Cladosporium cladosporioides, C. cladosporioides, read-out: MIC (ppm) against C. cladosporioides
  MIC: 25 µg/mL (≈ 99.1 µM)
[3]; Fusarium solani, F. solani, read-out: MIC (ppm) against F. solani
  MIC: 25 µg/mL (≈ 99.1 µM)
[3]; Geotrichum candidum, G. candidum, read-out: MIC (ppm) against G. candidum
  MIC: 10 µg/mL (≈ 39.6 µM)
[3]; P. purpurogenum, read-out: MIC (ppm) against P. purpurogenum
  MIC: 10 µg/mL (≈ 39.6 µM)
[3]; P. violacea, read-out: MIC (ppm) against P. violacea
  MIC: 10 µg/mL (≈ 39.6 µM)
[3]; Paecilomyces variotii, P. variotii, read-out: MIC (ppm) against P. variotii
  MIC: 25 µg/mL (≈ 99.1 µM)
[3]; S. atra, read-out: MIC (ppm) against S. atra
  MIC: 2.5 µg/mL (≈ 9.91 µM)
[3]; S. entoxylina, read-out: MIC (ppm) against S. entoxylina
  MIC: 5 µg/mL (≈ 19.8 µM)
[3]; Trichoderma viride, T. viride, read-out: MIC (ppm) against T. viride
  MIC: 25 µg/mL (≈ 99.1 µM)
[3]; U. atrum, read-out: MIC (ppm) against U. atrum
  MIC: 10 µg/mL (≈ 39.6 µM)

## [O-][S+]1CCON=C1c1cc2ccccc2s1 (stereo not shown) [Compound 87]
[2]
  Threshold concentration (ppm), A. niger, score 0: 1000 ppm
  Threshold concentration (ppm), A. niger, score 1-2: 250-500 ppm
  Threshold concentration (ppm), Aureobasidium, score 0: 1000 ppm
  Threshold concentration (ppm), Aureobasidium, score 1-2: 100-250 ppm
  Threshold concentration (ppm), Sclerophoma, score 0: 100 ppm
  Threshold concentration (ppm), Sclerophoma, score 1-2: 50-100 ppm
  Threshold concentration (ppm), Trichoderma, score 0: 5000 ppm
  Threshold concentration (ppm), Trichoderma, score 1-2: 1000-2500 ppm
[3]; A. amstelodami
  MIC (ppm) against A. amstelodami: 5 ppm
[3]; A. niger
  MIC (ppm) against A. niger: 2.5 ppm
[3]; A. pullulans
  MIC (ppm) against A. pullulans: 10 ppm
[3]; A. versicolor
  MIC (ppm) against A. versicolor: 2.5 ppm
[3]; C. cladosporioides
  MIC (ppm) against C. cladosporioides: 25 ppm
[3]; C. pilifera
  MIC (ppm) against C. pilifera: 2.5 ppm
[3]; F. solani
  MIC (ppm) against F. solani: 10 ppm
[3]; G. candidum
  MIC (ppm) against G. candidum: 25 ppm
[3]; P. purpurogenum
  MIC (ppm) against P. purpurogenum: 2.5 ppm
[3]; P. variotii
  MIC (ppm) against P. variotii: 10 ppm
[3]; P. violacea
  MIC (ppm) against P. violacea: 10 ppm
[3]; S. atra
  MIC (ppm) against S. atra: 2.5 ppm
[3]; S. entoxylina
  MIC (ppm) against S. entoxylina: 5 ppm
[3]; T. viride
  MIC (ppm) against T. viride: 10 ppm
[3]; U. atrum
  MIC (ppm) against U. atrum: 10 ppm

From patent publication US6372297B1, “Wood preservative oxathiazines” (Uniroyal Chemical Company, Inc., priority 1993, dated 2002)
